Test results published in patent US20140024720A1, “PHARMACEUTICAL COMPOSITION CONTAINING CYCLOBENZAPRINE SUITABLE TO INTRANASAL ADMINISTRATION” (Campiglo Consulting SRL, priority 2011, published 2014).
Structures can show the parent of a compound that is named as a salt. Where two headings read alike, the source gives them in different places.

Experiments:
[1] = in vivo; details: rabbit; for AUC(0-inf) / AUC(0-t) / Cmax / Tmax / half-life: male, New Zealand albino, plasma
Method: The plasma levels of cyclobenzaprine (CBZ) were determined after a single intranasal dose of 1.5 mg/kg in a volume of 10 μl, and 3.0 mg/kg in a volume of 20 μl, and after a single oral dose of 1.5 mg/kg in New Zealand albino male rabbits.
1. The oral administration was performed with a 0.15% solution, the intranasal administration with a 15% solution.
2. Six male animals/group were treated with a single dose by intranasal or oral route.
3. Fifteen minutes before the drug administration the central artery of the ear was cannulated with a 25-gauge needle catheter and for each animal 7 blood collections at time 0 (TO, before drug administration) and at 15, 30, 60, 90, 120, 180 minutes after drug administration were performed. Three mL of blood sample were collected in heparinized tubes and the volume replaced with a Ringer-Lactate solution. The plasma samples were obtained from blood samples by centrifugation at 3000 g for 5 min. The plasma samples were be stored at −20±2° C. until the LC/MS/MS analysis.
4. Rabbit plasma concentrations of CBZ were determined using a validated LC-MS/MS method in the calibration range of 0.25-300 ng/mL.
Aliquots of 250 μL of rabbit plasma were spiked with 5 μL of internal standard (IS) solution (containing approximately 5000 ng/mL of IS, Imipramine Hydrochloride) in water:methanol (50/50, v/v), after vortex-mixing, 250 μL of borate buffer were added. After vortex-mixing, 3.5 mL of hexane were added. After vortex-mixing for 10 minutes and centrifugation at 10.000 rpm at +4° C. for 10 minutes, aliquots of 3 mL of organic phase were transferred into a single glass tube and dried under vacuum at 40° C. using a Büchi vacuum system. The residues were re-constituted with 100 μL of 20 Mm ammonium acetate buffer solution, 0.1%:acetonitrile (50/50, v/v) solution. The tubes were then capped, vortex-mixed and centrifugated at 4100 rpm at +4° C. for 10 minutes. The final extracts were transferred into an autosampler vial and 4 μL were injected into the LC-MS/MS system.
Calibration curves plot the ratio of the area of the compound and the IS (y) against the analyte concentration (x). A weighted linear regression function (1/x) is used to fit calibration lines and consequently to calculate CBZ concentrations. The lower and upper limits of quantification are 0.25 and 300 ng/mL of plasma samples.

[2] = pH higher than 7.4, opalescence formation
[3] = cited from earlier work
[4] = inhaled or intranasal, 1.5 mg/kg

AUC(0-inf) [1, 4]: 65.8 ng·h/mL
AUC(0-t) [1, 4]: 60.1 ng·h/mL
Cmax [1, 4]: 69.3 ng/mL
Tmax [1, 4]: 30 min
half-life [1, 4]: 49.3 min
AUC(0-inf) ([1]; inhaled or intranasal, 3 mg/kg): 65.6 ng·h/mL
AUC(0-t) ([1]; inhaled or intranasal, 3 mg/kg): 54.6 ng·h/mL
Cmax ([1]; inhaled or intranasal, 3 mg/kg): 65.1 ng/mL
Tmax ([1]; inhaled or intranasal, 3 mg/kg): 30 min
half-life ([1]; inhaled or intranasal, 3 mg/kg): 93.9 min
AUC(0-inf) ([1]; po, 1.5 mg/kg): 3.44 ng·h/mL
AUC(0-t) ([1]; po, 1.5 mg/kg): 2.08 ng·h/mL
Cmax ([1]; po, 1.5 mg/kg): 1.28 ng/mL
Tmax ([1]; po, 1.5 mg/kg): 30 min
half-life ([1]; po, 1.5 mg/kg): 124 min
rate of absorption by intranasal route compared with oral route [1]: higher
absorption by intranasal route ([1]; intranasal): well absorbed
λz ([1]; intranasal 1.5 mg/kg, 15% solution): 0.940 h⁻¹
λz ([1]; intranasal 3.0 mg/kg, 15% solution): 0.452 h⁻¹
dose dependence of Cmax and AUC by intranasal route ([1]; intranasal 1.5 and 3.0 mg/kg): linear with the dose
λz ([1]; oral 1.5 mg/kg, 0.15% solution): 0.361 h⁻¹
tonicity (10% aqueous solution): ipertonic
tonicity (15% aqueous solution): ipertonic
NaCl equivalent (aqueous solution containing 5% cyclobenzaprine hydrochloride): 0.88 g-eq di NaCl
osmolarity (aqueous solution containing 5% cyclobenzaprine hydrochloride, practically isotonic): 400 mOsmol/L
solubility of cyclobenzaprine base in the buffer solution [2]: not soluble
Compound: CN(C)CCC=C1c2ccccc2C=Cc2ccccc21 [Cyclobenzaprine, 3-(5H-dibenzo[a,d]cyclo-epten-5-yliden)-N,N-dimethyl-1-propanamine hydrochloride]
plasmatic half time ([3]; absorbed per os, range 8-37 hours): 18 h
time until effect of a single administration is shown ([3]; after oral taking): one
duration of effect of a single administration ([3]; oral taking): ≥ 12 h
